The numbers were not newly measured in patent US12691066B2, “Dual-targeting biomimetic liposome with elemene (ELE) and cabazitaxel (CTX), and preparation method and use thereof” (HANGZHOU NORMAL UNIVERSITY, priority 2021, dated 2026), which cites them from elsewhere.

`CO[C@H]1C(=O)[C@]2(C)[C@@H](OC)C[C@H]3OC[C@@]3(OC(C)=O)[C@H]2[C@H](OC(=O)c2ccccc2)[C@]2(O)C[C@H](OC(=O)[C@H](O)[C@@H](NC(=O)OC(C)(C)C)c3ccccc3)C(C)=C1C2(C)C` [Cabazitaxel]: the solubility in ethanol result is “soluble” and the solubility in water entry is “almost insoluble”.
